The results in this text go back to ChEMBL document CHEMBL1201862, “PubChem BioAssay data set” (2004).

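All cell lines were grown in 96-well plates and treated with compound for 48 hours. GI50 = concentration required for 50% inhibition of growth.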 The source made the active and inactive calls. No stated cut-off is given here; in the data, active = GI50 up to about 1.1 µM and inactive = higher.

Common to all, as to assay: NCI anticancer screen, dose series, 48 h
In assay [1] the test system is SNB-75.
Assay [2] has as its system SF-268.
Assay [3] relates to SNB-78.
Assay [4] concerns HOP-62.
Assay [5] relates to UACC-62.
The test system of assay [6] is SF-295.
Assay [7] concerns SN12C.
The subject of assay [8] is OVCAR-3.
In assay [9] the test system is HCC 2998.
The test system of assay [10] is K562.
Assay [11] deals with HCT-116.
Assay [12] has as its system NCI-H522.
The test system of assay [13] is U-251.
Assay [14] concerns OVCAR-4.
For assay [15], the system named is HCT-15.
In assay [16] the test system is SF-539.
For assay [17], the system named is 786-0.
The test system of assay [18] is OVCAR-5.
Assay [19] deals with IGROV-1.

Consider `CCCCCCCCCCCC(=O)OCC1OC(n2cc(F)c(=O)[nH]c2=O)C(N)C(OC(=O)CCCCCCCCCCC)C1O` (stereo unspecified), for which the GI50 in assay [1] is 49.7 µM (inactive); in [2] it was > 100 µM (inactive); in assay [3] it was 71.1 µM (inactive); in [4] it was > 100 µM (inactive); in [5] it was > 100 µM (inactive); in assay [6] it was > 100 µM (inactive). For the same compound, the GI50 in [7] was 60.7 µM (inactive); in assay [8], 47.5 µM (inactive); in [9], 45.3 µM (inactive); in [10], 30.2 µM (inactive); in [11], 88.1 µM (inactive); in assay [12], 31.6 µM (inactive). Besides, the GI50 in [13] is > 100 µM (inactive); in assay [14], 37.3 µM (inactive); in assay [15], greater than 100 µM; in assay [16] it was 69.7 µM (inactive); in [17], > 100 µM (inactive).

As to `NNC(=O)CCC(=O)NC1C2CC3CC(C2)CC1C3` (stereo unspecified), the GI50 in assay [1], in [2], in [3], in assay [18], in assay [4] and in assay [5] was > 100 µM (inactive) throughout. Moreover, the GI50 in [6], in assay [7], in assay [9], in [10], in [11] and in [12] was > 100 µM (inactive) each time. Besides, the GI50 in [13] was > 100 µM (inactive); in assay [14], > 100 µM (inactive); in [15], greater than 100 µM; in [19] it was > 100 µM (inactive); in [16], > 100 µM (inactive); in assay [17], > 100 µM (inactive).

Consider `CC1CC[C@]2(C(=O)O)CCC3(C)C(=CCC4[C@@]5(C)CC[C@H](OS(=O)(=O)c6ccccc6)C(C)(C)C5CC[C@]43C)[C@@H]2[C@H]1C` (stereo partly specified), for which the GI50 in [1], in [2], in assay [3], in assay [18], in [4] and in [5] was > 100 µM (inactive) each time. Also, the GI50 in assay [6] is > 100 µM (inactive); in assay [7], > 100 µM (inactive); in assay [8] it was > 100 µM (inactive); in assay [9], 63.8 µM (inactive); in assay [10] it was 51.4 µM (inactive); in assay [11], 27.2 µM (inactive). The GI50 was 53.8 µM (inactive) in assay [12]; 83.2 µM (inactive) in assay [13]; > 100 µM (inactive) in [14]; > 100 µM (inactive) in assay [19]; > 100 µM (inactive) in assay [16]; > 100 µM (inactive) in assay [17].

For `CC(=O)OC(/C=C1/C=CC(=O)O1)COC(=O)c1ccccc1` (stereo unspecified) [ACETYLMELODORINOL], the GI50 in [1], in assay [2], in assay [3], in assay [18], in [4] and in assay [5] was > 31.2 µM (inactive) in each case. The GI50 in [6] was > 31.2 µM (inactive); in assay [7], > 31.2 µM (inactive); in assay [8], > 31.2 µM (inactive); in [9], > 31.2 µM (inactive); in assay [10] it was 10.5 µM (inactive); in assay [11] it was > 31.2 µM (inactive). Moreover, the GI50 in assay [12], in assay [13], in assay [14], in assay [19], in [16] and in assay [17] was > 31.2 µM (inactive) throughout.
